These results are taken from ChEMBL document CHEMBL4373709 (J Med Chem, 2019).

Structures are written as SMILES. Active and inactive are the calls of the source. No cut-off for these calls is given here.

As usually defined, the Emax is the greatest response seen or fitted, relative to the assay's reference. As usually defined, the EC50 is the concentration needed to bring the measured effect to its halfway point.

Test [1] deals with T1, Neurotensin receptor type 1 (Homo sapiens, UniProt P30989). The test can be described thus: Allosteric modulation of human GFP-fused PK-tagged Gq-coupled NTR1 expressed in CHOK1 cells assessed as induction of NT (8 to 13) peptide-mediated beta-arrestin recruitment measured after 90 mins by pathhunter assay relative to NT (8 to 13) peptide. Type of test: cell-based. (Activated receptors often draw arrestin, which recruitment assays turn into a signal.)
T1 sequence (P30989 whole entry, the tested form may be a part): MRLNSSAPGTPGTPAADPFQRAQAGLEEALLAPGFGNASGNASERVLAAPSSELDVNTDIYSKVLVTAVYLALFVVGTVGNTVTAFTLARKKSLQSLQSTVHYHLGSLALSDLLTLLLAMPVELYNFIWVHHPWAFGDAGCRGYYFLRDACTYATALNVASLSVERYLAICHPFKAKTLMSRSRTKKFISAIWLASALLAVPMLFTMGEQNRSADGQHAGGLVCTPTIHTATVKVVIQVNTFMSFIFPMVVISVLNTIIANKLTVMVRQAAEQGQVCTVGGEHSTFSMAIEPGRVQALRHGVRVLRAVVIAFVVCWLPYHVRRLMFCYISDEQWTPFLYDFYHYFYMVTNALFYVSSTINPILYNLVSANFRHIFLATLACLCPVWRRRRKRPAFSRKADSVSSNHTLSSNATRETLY

The target of test [2] is Neurotensin receptor type 2 (Homo sapiens) (UniProt O95665). The test can be described thus: Allosteric modulation of NTR2 (unknown origin) assessed as induction of NT (8 to 13) peptide-mediated beta-arrestin recruitment at >80 uM by pathhunter assay.
Neurotensin receptor type 2 (Homo sapiens), sequence (O95665 whole entry, the tested form may be a part): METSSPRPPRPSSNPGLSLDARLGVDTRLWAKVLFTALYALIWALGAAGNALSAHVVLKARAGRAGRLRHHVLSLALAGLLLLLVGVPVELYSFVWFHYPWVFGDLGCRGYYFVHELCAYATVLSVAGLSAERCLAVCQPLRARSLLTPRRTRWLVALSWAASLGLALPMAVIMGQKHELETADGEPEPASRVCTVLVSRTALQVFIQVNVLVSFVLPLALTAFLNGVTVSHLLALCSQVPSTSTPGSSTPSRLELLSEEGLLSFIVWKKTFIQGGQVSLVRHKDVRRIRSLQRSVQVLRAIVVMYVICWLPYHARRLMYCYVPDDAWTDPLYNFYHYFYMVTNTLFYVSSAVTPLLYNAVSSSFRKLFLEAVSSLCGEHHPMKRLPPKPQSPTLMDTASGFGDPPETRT
For test [3], the target named is T1, Neurotensin receptor type 1. The test can be described thus: Allosteric modulation of human GFP-fused PK-tagged Gq-coupled NTR1 expressed in CHOK1 cells assessed as induction of NT (8 to 13) peptide-mediated beta-arrestin recruitment measured after 90 mins by pathhunter assay. It counts as cell-based.
The target is the same in test [4]. Nature of the test: Agonist activity at NTR1 (unknown origin) expressed in CHO cells assessed as effect on calcium flux by Fluo-4 NW calcium dye based fluorescence assay. Type of test: functional, cell-based. On the technique in general: Calcium flux is commonly read through the fluorescence of an indicator in the cells.
The target of test [5] is Kappa-type opioid receptor (Homo sapiens) (UniProt P41145). The test can be described thus: Allosteric modulation of human PK-tagged Gi/Go-coupled KOR expressed in CHOK1 cells assessed as induction of dynorphin A-mediated beta-arrestin recruitment by pathhunter assay. Type of test: cell-based.
Kappa-type opioid receptor (Homo sapiens), sequence (P41145 whole entry): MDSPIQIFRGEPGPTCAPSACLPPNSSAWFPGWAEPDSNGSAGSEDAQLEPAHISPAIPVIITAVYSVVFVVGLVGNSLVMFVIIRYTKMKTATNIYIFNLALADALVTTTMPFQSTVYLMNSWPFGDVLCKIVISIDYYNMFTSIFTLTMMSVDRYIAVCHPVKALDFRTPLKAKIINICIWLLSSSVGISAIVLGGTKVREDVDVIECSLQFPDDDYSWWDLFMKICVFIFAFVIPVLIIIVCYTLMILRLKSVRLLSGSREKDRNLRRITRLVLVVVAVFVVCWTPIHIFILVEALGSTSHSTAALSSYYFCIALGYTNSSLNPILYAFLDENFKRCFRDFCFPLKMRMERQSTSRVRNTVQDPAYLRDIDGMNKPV
Test [6] deals with G-protein coupled receptor 35 (Homo sapiens) (UniProt Q9HC97). The test can be described thus: Allosteric modulation of human PK-tagged Gi/Go-coupled GPR35 expressed in CHOK1 cells assessed as induction of zaprinast-mediated beta-arrestin recruitment by pathhunter assay. It counts as cell-based.
G-protein coupled receptor 35 (Homo sapiens), sequence (Q9HC97 whole entry): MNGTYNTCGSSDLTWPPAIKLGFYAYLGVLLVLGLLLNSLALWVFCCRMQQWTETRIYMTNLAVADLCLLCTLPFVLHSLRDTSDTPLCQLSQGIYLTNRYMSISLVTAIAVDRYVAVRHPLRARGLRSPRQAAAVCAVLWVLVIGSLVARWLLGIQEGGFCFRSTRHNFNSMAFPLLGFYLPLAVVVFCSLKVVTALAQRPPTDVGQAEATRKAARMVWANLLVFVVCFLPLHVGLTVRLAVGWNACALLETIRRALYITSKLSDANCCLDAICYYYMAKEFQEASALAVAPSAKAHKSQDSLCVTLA
In test [7] the target is G-protein coupled receptor 55 (Homo sapiens) (UniProt Q9Y2T6). The test can be described thus: Allosteric modulation of human PK-tagged Gq-coupled GPR55 expressed in CHOK1 cells assessed as induction of L-alpha-Lysophosphatidylinositol-mediated beta-arrestin recruitment by pathhunter assay. It counts as functional, cell-based.
G-protein coupled receptor 55 (Homo sapiens), sequence (Q9Y2T6 whole entry): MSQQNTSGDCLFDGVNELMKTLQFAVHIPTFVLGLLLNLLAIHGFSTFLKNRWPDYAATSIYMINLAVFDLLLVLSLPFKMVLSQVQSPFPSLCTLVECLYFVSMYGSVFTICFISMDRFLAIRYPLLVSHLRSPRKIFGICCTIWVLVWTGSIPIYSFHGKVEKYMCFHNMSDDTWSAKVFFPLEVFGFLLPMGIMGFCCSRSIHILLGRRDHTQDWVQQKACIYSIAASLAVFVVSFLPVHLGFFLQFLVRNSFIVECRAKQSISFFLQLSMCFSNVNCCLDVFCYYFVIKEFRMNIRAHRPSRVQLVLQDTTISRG

For `COc1ccccc1C1CCN(c2nc(C3CC3)nc3ccc(N(C)CCO)c(F)c23)CC1`, in test [1], the maximal effect (Emax) was 95%. Besides, in test [2], the result was inactive. The EC50 in test [3] was determined as 0.59 µM.
`COc1ccccc1C1CCN(c2nc(C3CC3)nc3ccc(N(C)CCO)c(C)c23)CC1`: in test [1], the Emax turned out to be 93%. Further, the result in test [2] was inactive. Further, in test [3], the EC50 turned out to be 1.26 µM.
`COc1ccccc1C1CCN(c2nc(C3CC3)nc3ccc(N4CC[C@H](OC)C4)cc23)CC1`: the Emax in test [1] was 82%. For the same molecule, in test [2], the outcome was inactive. The EC50 in test [3] was found to be 0.81 µM.
For `COc1ccccc1C1CCN(c2nc(C3CC3)nc3cc(Cl)c(N(C)CCO)cc23)CC1`, in test [1], the Emax worked out at 98%. In addition, the result in test [2] was inactive. The EC50 in test [3] worked out at 0.6 µM.
Taken in the same sequence, the figures for `COc1ccccc1C1CCN(c2nc(C3CC3)nc3ccc(N(C)CCN4CCOCC4)cc23)CC1` were 92%, “inactive” and 0.81 µM.
Turning to `COc1ccccc1C1CCN(c2nc(C3(C)CCC3)nc3ccc(N(C)CCO)cc23)CC1`, in test [1], the maximal response (Emax) is 75%. Moreover, the result in test [2] was inactive. In addition, the EC50 in test [3] was 1.48 µM.
In the case of `COCCN(C)c1ccc2nc(C3(C)CC3)nc(N3CCC(c4ccccc4OC)CC3)c2c1`, in test [1], the Emax stood at 60%. Moreover, the result in test [2] was inactive. Further, the 50% effective concentration (EC50) in test [3] worked out at 2.23 µM.
Taken in the same sequence, the figures for `COc1ccccc1C1CCN(c2nc(C3CC3)nc3ccc(N4CC[C@H](O)C4)cc23)CC1` were 78%, “inactive” and 1.01 µM.
Taken in the same sequence, the figures for `COCCN(C)c1ccc2nc(C3CC3)nc(N3CCC(c4ccccc4OC)CC3)c2c1` were 79%, “inactive” and 1.12 µM.
For `COc1ccccc1C1CCN(c2nc(C3CC3)nc3c(F)cc(N(C)CCO)cc23)CC1`, the maximal effect (Emax) in test [1] came out at 100%. In test [2], the outcome was inactive. Moreover, the half-maximal effective concentration (EC50) in test [3] was determined as 0.16 µM.
Turning to `COc1ccccc1C1CCN(c2nc(C3CC3)nc3ccc(N(C)CCO)cc23)CC1`, the maximal response (Emax) in test [1] amounted to 92%. Further, in test [2], the outcome was inactive. Also, the EC50 in test [3] amounted to 0.478 µM.
Consider `COc1ccccc1C1CCN(c2nc(C3(C)CC3)nc3ccc(N(C)CCN4CCOCC4)cc23)CC1`, for which the Emax in test [1] amounted to 71%. The result in test [2] was inactive. The EC50 in test [3] was 3.36 µM.
Regarding `COc1ccccc1C1CCN(c2nc(C3CC3)nc3cc(C)c(N(C)CCO)cc23)CC1`, in test [1], the maximum response (Emax) turned out to be 88%. Also, the result in test [2] was inactive. For the same molecule, the EC50 in test [3] was determined as 0.56 µM.
On the same counts, the results for `COc1ccccc1C1CCN(c2nc(-c3ccccc3)nc3ccc(N(C)CCO)cc23)CC1` are 70%, “inactive” and 4.23 µM.
Turning to `COc1ccccc1C1CCN(c2nc(C3CC3)nc3c(Cl)cc(N(C)CCO)cc23)CC1`, in test [1], the Emax was 95%. Moreover, the result in test [2] was inactive. Further, the EC50 in test [3] was 0.22 µM.
Consider `COc1ccccc1C1CCN(c2nc(C3(C)CC3)nc3ccc(N(C)CCO)cc23)CC1`, for which, in test [1], the maximal effect (Emax) worked out at 90%. Moreover, the outcome in test [2] was inactive.
With `COc1ccccc1C1CCN(c2nc(C3(F)CC3)nc3ccc(N(C)C)cc23)CC1`, the Emax in test [1] was 84%. Besides, in test [2], the outcome was inactive. Also, the concentration giving a half-maximal response (EC50) in test [3] amounted to 0.92 µM.
For `COc1ccccc1N1CCN(c2nc(C3CC3)nc3ccc(N(C)C)cc23)CC1`, in test [3], the EC50 turned out to be 0.71 µM.
As to `CCN(C)c1ccc2nc(C3CC3)nc(N3CCC(c4ccccc4OC)CC3)c2c1`, the Emax in test [1] amounted to 80%. Further, the outcome in test [2] was inactive. Further, the EC50 in test [3] is 0.56 µM.
As for `COc1ccccc1C1CCN(c2nc(C3CC3)nc3ccc(N4CCC(O)CC4)cc23)CC1`, the Emax in test [1] amounted to 82%. For the same molecule, in test [2], the outcome was inactive. In addition, the concentration for a half-maximal effect (EC50) in test [3] is 6.72 µM.
`COc1cc2nc(C3CC3)nc(C3CCN(c4ccccc4OC)CC3)c2cc1OC`: the outcome in test [2] was inactive. Also, the EC50 in test [3] was greater than 20 µM.
`CCCN(C)c1cc2c(N3CCC(c4ccccc4OC)CC3)nc(C3CC3)nc2cc1C`: the Emax in test [1] was found to be 86%. Besides, the outcome in test [2] was inactive. Besides, in test [3], the concentration for a half-maximal effect (EC50) turned out to be 0.99 µM.
Taken in the same sequence, the figures for `COc1ccccc1C1CCN(c2nc(C3(C(F)(F)F)CC3)nc3ccc(N(C)CCO)cc23)CC1` were 94%, “inactive” and 0.34 µM.
For the molecule `COCCN(C)c1ccc2nc(C3(F)CC3)nc(N3CCC(c4ccccc4OC)CC3)c2c1`, the maximum response (Emax) in test [1] stood at 86%. Moreover, in test [2], the result was inactive. Also, the EC50 in test [3] was found to be 1.06 µM.
Consider `COc1ccccc1C1CCN(c2nc(C3CC3)nc3ccc(N4CCC(OC)CC4)cc23)CC1`, for which the Emax in test [1] was determined as 79%. For the same molecule, the result in test [2] was inactive. Moreover, the EC50 in test [3] worked out at 2.78 µM.
As to `COc1cc2nc(C3CC3)nc(N3CCC(c4ccccc4OC)CC3)c2cc1OC`, in test [1], the Emax was 89%. Besides, the outcome in test [2] was inactive. Also, the concentration for a half-maximal effect (EC50) in test [3] was 1.04 µM.
Consider `COc1ccccc1C1CCN(c2nc(C3(C(F)(F)F)CC3)nc3ccc(N(C)CCN4CCOCC4)cc23)CC1`, for which the Emax in test [1] is 78%. Further, the result in test [2] was inactive. The 50% effective concentration (EC50) in test [3] is 3.81 µM.
Turning to `CCCN(C)c1ccc2nc(C3(F)CC3)nc(N3CCC(c4ccccc4OC)CC3)c2c1`, the maximal effect (Emax) in test [1] came to 80%. The result in test [2] was inactive. In addition, in test [3], the EC50 came to 1.45 µM.
As to `COc1ccccc1C1CCN(c2nc(C3CC3)nc3ccc(N(C)CCO)c(Cl)c23)CC1`, the Emax in test [1] was determined as 91%. For the same molecule, the outcome in test [2] was inactive. In addition, in test [3], the EC50 worked out at 0.5 µM.
With `COc1ccccc1C1CCN(c2nc(C3(F)CC3)nc3ccc(N(C)CCN4CCOCC4)cc23)CC1`, the Emax in test [1] was found to be 97%. The outcome in test [2] was inactive. Moreover, the EC50 in test [3] is 1.72 µM.
Regarding `COc1ccccc1C1CCN(c2nc(C3CC3)nc3ccc(N(C)C)cc23)CC1`, the maximal response (Emax) in test [1] is 89%. Besides, in test [2], the outcome was inactive. In test [3], the 50% effective concentration (EC50) came to 0.888 µM.
On to `COc1ccccc1C1CCN(c2nc(C3CC3)nc3ccc(N4CC[C@@H](O)C4)cc23)CC1`, for which, in test [1], the Emax turned out to be 79%. Also, the outcome in test [2] was inactive. The EC50 in test [3] amounted to 0.44 µM.
With `CCN(C)c1cccc2nc(C3CC3)nc(N3CCC(c4ccccc4OC)CC3)c12`, in test [1], the Emax worked out at 60%. In test [2], the outcome was inactive. In addition, the concentration giving a half-maximal response (EC50) in test [3] came out at 6.71 µM.
Consider `COc1ccccc1C1CCN(c2nc(C3CC3)nc3ccc(N4CC[C@@H](OC)C4)cc23)CC1`, for which, in test [1], the Emax came to 93%. Also, the outcome in test [2] was inactive. Besides, in test [3], the 50% effective concentration (EC50) was 0.64 µM.
For `CCCN(C)c1ccc2c(N3CCC(c4ccccc4OC)CC3)nc(C3CC3)nc2c1`, the Emax in test [1] turned out to be 86%. Moreover, in test [2], the result was inactive. Also, the 50% effective concentration (EC50) in test [3] was 10 µM.
Turning to `COc1ccccc1C1CCN(c2nc(C3(F)CCC3)nc3ccc(N(C)CCO)cc23)CC1`, the Emax in test [1] stood at 96%. Also, in test [2], the result was inactive. The EC50 in test [3] is 0.27 µM.
Take `COc1ccccc1C1CCN(c2nc(C3CCCC3)nc3ccc(N(C)CCO)cc23)CC1`: in test [1], the Emax is 78%. Also, the result in test [2] was inactive. For the same molecule, in test [3], the concentration for a half-maximal effect (EC50) came out at 3.88 µM.
For the molecule `COc1ccccc1C1CCN(c2nc(C3CCC3)nc3ccc(N(C)CCO)cc23)CC1`, the Emax in test [1] is 80%. For the same molecule, the result in test [2] was inactive. For the same molecule, in test [3], the EC50 stood at 1.05 µM.
Taken in the same sequence, the figures for `CCCN(C)c1ccc2nc(C3CC3)nc(N3CCC(c4ccccc4OC)CC3)c2c1` were 68%, “inactive” and 0.732 µM.
`COc1ccccc1C1CCN(c2nc(C3CC3)nc3c(C)cc(N(C)CCO)cc23)CC1`: the maximum response (Emax) in test [1] came out at 87%. Moreover, the outcome in test [2] was inactive. For the same molecule, the EC50 in test [3] was found to be 0.16 µM.
As to `CCCN(C)c1cc2c(N3CCC(c4ccccc4OC)CC3)nc(C3CC3)nc2cc1F`, the maximal effect (Emax) in test [1] worked out at 68%. Besides, the outcome in test [2] was inactive. In addition, the EC50 in test [3] was 3.01 µM.
Take `COc1cc2nc(C3CC3)nc(N3CCN(c4ccccc4OC)CC3)c2cc1OC`: the result in test [4], in test [5], in test [6], in test [2] and in test [7] was inactive. For the same molecule, the 50% effective concentration (EC50) in test [3] turned out to be 2.87 µM.
